Structures are written as SMILES. “Also recorded” adds a separate entry of the source.

The target in one assay is T1, G3BP2 (Homo sapiens, UniProt Q9UN86).
T1 construct: protein lysates from three breast cancer cell lines incubated overnight with; endogenous in cells
T1 sequence (Q9UN86 1-482): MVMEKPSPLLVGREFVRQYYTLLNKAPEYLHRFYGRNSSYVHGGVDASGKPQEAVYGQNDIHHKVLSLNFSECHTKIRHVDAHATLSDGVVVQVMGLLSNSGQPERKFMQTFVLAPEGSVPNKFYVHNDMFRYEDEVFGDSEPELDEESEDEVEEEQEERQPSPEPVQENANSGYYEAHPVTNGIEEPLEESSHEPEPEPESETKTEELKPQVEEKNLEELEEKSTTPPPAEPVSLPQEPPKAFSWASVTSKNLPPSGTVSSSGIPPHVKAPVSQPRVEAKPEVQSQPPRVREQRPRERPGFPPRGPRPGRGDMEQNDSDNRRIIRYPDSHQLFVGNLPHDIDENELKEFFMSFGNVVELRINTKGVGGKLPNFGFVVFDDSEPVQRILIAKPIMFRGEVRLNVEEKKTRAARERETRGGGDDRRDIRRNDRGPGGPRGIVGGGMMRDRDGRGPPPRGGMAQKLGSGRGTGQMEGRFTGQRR
The assay is described as follows: Pull-down with compound-conjugated TURBOBEADS nanoparticles, Western blot with G3BP2 antibodies. In kind it is binding. The note with it: nanoparticles bound to compound vs nanoparticles alone (control). How it is done: Western blot analysis was performed with G3BP2 antibodies. Small molecule 2-hydroxy-N′-[1-(2-hydroxyphenyl)ethylidene]benzohydrazide was conjugated to TURBOBEADS® carboxy nanoparticles (TURBOBEADS®). TURBOBEADS® alone were used as a negative control.
To determine which […] would bind to a test compound, TURBOBEADS® carboxy nanoparticles (TURBOBEADS®) were conjugated to 2-hydroxy-N′-[1-(2-hydroxyphenyl)ethylidene]benzohydrazide for 20 mi as per manufacturer's protocol, followed by overnight immunoprecipitation at 4° C. Proteins from metastatic cancer cells were pulled-down with using the test compound-nanoparticle conjugates and using unconjugated nanoparticles as a control.
shRNA-expressing lentivirus was obtained for each pull-down protein and used to infect modified MDA-MB-231 cells. MTT assays were performed with shRNA stable cell lines and treated with non-lethal doses of paclitaxel. Only shRNA […] made cells sensitive to treatment with paclitaxel. To confirm that the test compound (2-hydroxy-N′-[1-(2-hydroxyphenyl)ethylidene]benzohydrazide) bound to G3B3P2, an immunoprecipitation with magnetic nanoparticles bound to 2-hydroxy-N′-[1-(2-hydroxyphenyl)ethylidene]benzohydrazide and nanoparticles alone (control) was carried out.
(In general: A western blot detects proteins with antibodies after separation by electrophoresis.)

In the next assay the test system is IL-6. The assay is described as follows: IL-6 concentration by ELISA after compound treatment. The class given is cell-based. The note with it: 4T1 and E0771 breast cancer cell lines, 1 μM, 24 hours. How it is done:
After treatment, IL-6 concentration was decreased by about 5 to 7 fold.
4T1 and E0771 cells were grow in 96 well plate and were treated with compound for 24 hours (concentration of compound was 1 μM). Commercial ELISA kit (R&D systems) was used for measuring of IL-6 concentration. […] After treatment, IL-6 concentration was decreased by about 5 to 7 fold.
(ELISA stands for enzyme-linked immunosorbent assay.)

In a further assay the test system is ZEB1. The assay is described as follows: ZEB1 protein level by Western blot after compound treatment. The class given is cell-based. The settings on record: MDA-MB-453 and BT-474 breast cancer cell lines, 3 μM, 24 hours. As for the experimental part: Immunoprecipitation was performed using Protein A Sepharose beads (GE Healthcare Lifesciences). Beads were washed, conjugated to the immunoprecipitating antibody for 2 hours, and immunoprecipitated overnight at 4° C. Western blots were performed using a standard protocol; using 4-10% gradient gel and Tris-glycine transfer buffer.
A direct molecular link between epithelial-mesenchymal transition (EMT) and CSC plasticity in breast cancer has recently been shown; EMT effectors such as ZEB1 can co-induce both EMT and stem-like properties (see e.g., Chaffer et al., Cell, 2013, 154, 61-74). To understand if the G3BP2-mediated CSC state intersects with the EMT program, we the protein level of ZEB1 in G3BP2 knockdown and overexpression breast cancer cell lines was analyzed.

In the next assay the test system is PD-L1. In words: PD-L1 protein level by Western blot in cells under compressive (solid) stress. The class given is cell-based. The note with it: breast cancer (4T1) and glioblastoma cells (CT2A, GL261), solid stress 0.80 kPa, 1 μM, 24 hours. As for the experimental part:
Cells were treated with 1 μM C108 for 24 hours and untreated cells were used as a control. β-actin was used as a loading control.
To generate compressive stress, a device was used that included a piston of adjustable weights applying a constant force to cells growing on a transwell membrane with 0.8 μm-pores. This membrane permitted nutrient and oxygen diffusion but prevented cell transmigration. The connection between compressive stress and G3BP2 and PD-L1 protein levels was measured in 4T1 cells. When 80% cell confluence was reached on the membrane, the cells were compressed for 24 h using the in vitro compression device; a similar membrane containing 80% cell confluence in an uncompressed condition was used as the control. After 24-h compression, proteins were isolated from the control and compressed cells cultured in full-growth medium according to the standard protocol (see e.g., Roose et al. Microvasc Res, 2003, 66(3):204-12). […] To confirm this finding, Western blot analysis was performed with different breast cancer cells (MDA-MB-231 cells) with different of compressive stress, as shown in FIG. 15B).
It was then hypothesized that compounds that bind to G3BP2 protein can repress PD-L1 in stressed cells. Breast cancer cells and glioblastoma cells in vitro were analyzed with 2-hydroxy-N′-[1-(2-hydroxyphenyl)ethylidene]benzohydrazide (i.e., C108) for 24 hours.

As to `CC(=NNC(=O)c1ccccc1O)c1ccccc1O` [C108, 2-hydroxy-N′-[1-(2-hydroxyphenyl)ethylidene]benzohydrazide], the “Binding of G3BP2 to the compound (Western blotting after immunoprecipitation with magnetic nanoparticles)” value at G3BP2 was “binds”. In addition, the “Decrease in IL-6 concentration” value in the assay on IL-6 is 5 to 7 fold. Besides, the ZEB1 inhibition with ZEB1 is 5-7 fold. The PD-L1 expression level result in the assay on PD-L1 is listed as “repressed; also recorded: diminished”.

These data come from patent US11427543B2, “Compounds for targeting cancer stem cells” (The General Hospital Corporation, priority 2016, dated 2022).
